Patent publication US20180021315A1, “METHODS OF TREATING HEARING DISORDERS” (Wayne State University, priority 2016, published 2018)
Entries after “also recorded” stand apart in the source; their conditions may differ. Like-named read-outs stand apart in the source and are kept apart here.

Assays:
C57BL/6 mice = test: Noise-induced tinnitus (NIHL), gap detection task, thalidomide treatment; format: in vivo, mouse; conditions: 100 mg/kg IP daily for three days after noise exposure, FIG. 9
Method: All experimental procedures were reviewed and approved by UC Berkeley Animal Care and Use Committee. TNF-α knockout (KO) mice and corresponding C75Bl/6 wild-type (WT) mice were originally purchased from the Jackson Laboratory and were bred in a UC Berkeley animal facility. Animals were anesthetized with ketamine (100 mg/kg, IP) and xylazine (10 mg/kg, IP) and maintained at 36.5° C. with a homeothermic heating pad (Harvard Apparatus). Unilateral noise-induced hearing loss (NIHL) experiments were performed in a sound attenuation chamber by playing a continuous pure tone of 8 kHz at 112 dB SPL through a calibrated custom-made piezo earphone speaker to the left ear of the mouse for 2 hours, while the right ear was protected with sound attenuating clay. The sound level was calibrated with a Bruel and Kjaer 4135 condenser microphone (Nærum, Denmark) before and after the NIHL.
Tinnitus was assessed using the gap detection paradigm.
Eight C57BL/6 mice were tested with the gap detection task, described above, before and after undergoing NIHL. […] Afterward, animals received daily injection of 100 mg/kg (IP) thalidomide for three days and were tested for tinnitus.

blast-exposed rats [1] = test: Blast-induced tinnitus, gap detection, thalidomide treatment; format: in vivo, rat; conditions: injected daily for 5 days, FIG. 8C
Method: A rat model of blast-induced tinnitus was developed to investigate the role of TNF-α in a traumatic brain injury (TBI) blast exposure induced tinnitus. Rats were anesthetized with isoflurane (0.75-1% in a 2:1 N2O:O2 gas mixture), placed on supportive netting, and secured with a locking device. All animals had one ear occluded with an earplug before they were blast-exposed in a shock-tube assembly (ORA, Inc.).
Behavioral evidence of blast-induced tinnitus was tested using a gap detection test as described above. […] Blast-exposed rats also spent less time in, and made fewer entries into, the open arms of an elevated plus maze (FIG. 7C), showing a higher anxiety level. The results are consistent with findings in blast-exposed humans and indicate that the blast model is suitable for studying mechanisms and treatment of blast-induced tinnitus and anxiety.

[2] = test system: wildtype and TNF-α KO mice
Method: Tinnitus was assessed using the gap detection paradigm. The gap detection task measures the acoustic startle response elicited by a brief white noise pulse and its suppression by a preceding silent gap embedded in a background sound. […] Mice were placed in a small box, which rested atop a piezoelectric sensor within a sound attenuation chamber. Sounds were played through an open field speaker (FOSTEX FT17H) fixed above the small box. Each trial began with a carrier pure tone (frequency pseudo-randomly selected from 5, 7, 10, 14, 20, 28, or 45 kHz, all at 75 dB SPL), played for 10-20 s. In uncued trials, the carrier tone was followed by a startle stimulus—a 50 ms white noise burst at 102 dB SPL. In cued trials, the startle stimulus was preceded by a 50 ms silence, 100 ms prior to its onset. In each testing session, the animal performed a total of 500 trials (50% cued and 50% uncued). After each session, the startle response ratio was calculated, which is defined as the average startle amplitude to the cued trials divided by the average amplitude of the uncued trials. The startle response ratio signifies a silent-gap induced reduction of the startle response. For example, a startle response ratio of 0.6 indicates a 40% reduction of the startle amplitude for the cued trials.

TNF-α = conditions: has been shown; cited from earlier work
WT and KO mice = conditions: systemic salicylate injection, FIGS. 5C-5D
Method: To assess an animal's ability to perform an auditory task, separate from its ability to detect a silent gap, the pre-pulse inhibition (PPI) task was administered to a subset of the mice before and after NIHL. The physical setup for the PPI task was identical to that of the gap detection. However, the trial structure differed in that carrier tone was absent and a white noise burst was cued by a 50-ms pure tone pulse (frequency pseudo-randomly selected from 5, 7, 10, 14, 20, 28, or 45 kHz, all at 75 dB SPL). In short, the PPI task tests an animal's ability to detect a pure tone pulse in silence, while the gap detection task measures an animal's ability to detect a silent gap in a continuous pure tone.

[3] = 5 mg/kg, I.P. route; cited from earlier work
blast-exposed rats [4] = test: Blast-induced tinnitus, gap ratio, etanercept; format: in vivo, rat; conditions: for gap ratio values (gap/startle-only response), therapeutic effect on tinnitus: FIG. 29
Method: Each of the rats was subjected to blast exposure in the left ear using a shock tube (ORA Inc.) located at the Wayne State University Bioengineering Center. The blast exposure of each rat was performed under anesthesia with a mixture of air (1 liter/min) and isoflurane (5% v/v). The rat was placed on supportive netting with a metal surround and secured on a pole with its head facing the oncoming shockwave. During blast exposure, the rat's right ear was occluded with a silicone earplug (Mack's; McKeon Products, Warren, Mich.), followed by application of mineral oil to seal any remaining openings. The average energy under 10 kHz measured at 22 psi was equivalent to 150 kPa or 197.5 dB SPL. After blast exposure, each rat was transferred to a polycarbonate cage.
Thirty two rats from Example 10 were used. Behavioral tinnitus testing, including gap detection and PPI testing, was conducted with Hamilton-Kinder startle-reflex hardware and software. During behavioral testing, each rat was placed in an individual noise-attenuation chamber to perform gap and PPI testing. In the gap procedure, each rat was presented with a constant 60-dB SPL background noise composed of 2,000 Hz bandpass signals at 6-8, 10-12, 14-16, 18-20, or 26-28 kHz or broadband noise (BBN; 2-30 kHz). A 115 dB SPL, 50 ms noise-burst was used as the startle stimulus to induce the acoustic startle reflex. The background noise session contained two conditions, one condition was the startle only condition in which rat was presented with the startle stimulus alone, and the other condition was the gap condition in which a rat was presented with a startle stimulus preceded by a silent gap embedded within the background noise. Silent gaps were 40 ms in duration with a lead interval of 90 ms to the startle stimulus. The startle reflex of rats was measured in response to 3 conditions: 1) background noise alone, 2) startle only, and 3) gap. […] The startle amplitude of rats in response to the two conditions was measured: the startle-only condition and a prepulse followed by the startle stimulus. […]

O=C1CCC(N2C(=O)c3ccccc3C2=O)C(=O)N1 (stereo not shown) [thalidomide]
gap detection performance after NIHL (C57BL/6 mice): dramatically improved gap detection performance over a wide frequency range, completely reversing the impairment | blast-induced tinnitus (gap detection) (blast-exposed rats [1]): Significant suppression of tinnitus; also recorded: significantly suppressed

O=C(O)c1ccccc1O [salicylate]
behavioral manifestation of tinnitus (gap detection) ([2]; TNF-α KO mice, same dose 300 mg/kg, FIG. 5B): did not show tinnitus | behavioral manifestation of tinnitus (gap detection) ([2]; wildtype mice, systemic injection 300 mg/kg, 30 min later, FIG. 5A): resulted in robust behavioral manifestation of tinnitus | TNF-α expression in the inferior colliculus (TNF-α): increase TNF-α expression in the inferior colliculus | PPI performance (WT and KO mice): affected PPI performance in WT but not KO mice

etanercept
effect on TBI [3]: attenuates TBI | gap ratio values (gap/startle-only response), therapeutic effect on tinnitus (blast-exposed rats [4]; 5 mg/kg i.p. daily for 5 days from 1 day after blast, low frequencies and 28 kHz, two-week and three-week timepoints): significant therapeutic effect on tinnitus | gap ratio values (gap/startle-only response), therapeutic effect on tinnitus (blast-exposed rats [4]; 5 mg/kg i.p. daily for 5 days, one-day and one-week timepoints): less pronounced | onset of therapeutic effect relative to 3,6′-dithiothalidomide (blast-exposed rats [4]; compare FIG. 29 with FIG. 15A): delayed therapeutic effect
